Data as given in publication PMC7544826 (Communications Biology, 2020).
Entries after “also recorded” stand apart in the source; their conditions may differ.

Assays:
Notum [1] = biological target: T1, Notum (Homo sapiens, UniProt Q6P988, C330S); assay: Thermal shift assay (SYPRO Orange) of Notum; settings: compound 500 µM; for Thermoflour melting curve fluorescence of Notum: Fig 2c
T1 sequence (Q6P988 81-451 C330S): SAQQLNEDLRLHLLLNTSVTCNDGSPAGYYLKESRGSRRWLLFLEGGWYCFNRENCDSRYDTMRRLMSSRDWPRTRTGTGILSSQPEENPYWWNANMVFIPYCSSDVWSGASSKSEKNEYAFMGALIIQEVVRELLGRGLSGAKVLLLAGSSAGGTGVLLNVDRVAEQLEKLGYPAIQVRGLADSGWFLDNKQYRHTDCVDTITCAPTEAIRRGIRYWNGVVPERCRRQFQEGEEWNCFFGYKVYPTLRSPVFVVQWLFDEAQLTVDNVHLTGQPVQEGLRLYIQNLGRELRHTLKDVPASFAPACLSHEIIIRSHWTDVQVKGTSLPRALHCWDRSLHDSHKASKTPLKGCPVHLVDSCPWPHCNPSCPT
Procedure: Reference wells, i.e. solutions without compounds were used to compare the melting temperature (Tm). The experiments were performed in triplicate.

Notum [2] = biological target: T1, Notum; assay: Notum activity assay with OPTS as substrate; format: biochemical; design: The human Notum enzyme core comprising amino acids S81–T451 with a C330S mutation; made in house; dialyzed conditioned medium used without purification; settings: result in words
Procedure: OPTS is a common lipase substrate with an octanoyl lipid linked to a fluorescent moiety. It is not a natural Notum substrate; however, it can be used to quantify the enzymatic activity of purified Notum protein[23],[25],[28]. […] The fluorescent lipase substrate OPTS was dissolved in water at a concentration of 20 µM. […] The inhibition curves were fitted with a one-site model with GraphPad Prism 8 software.

Notum [3] = biological target: T1, Notum; assay: SPR equilibrium binding to biotinylated Notum on streptavidin chip; design: The human Notum enzyme core comprising amino acids S81–T451 with a C330S mutation; made in house; dialyzed conditioned medium used without purification; settings: for SPR Response: Fig 2b
Procedure: The human Notum core sequence was cloned in a pHL-Avi3 vector[49] and co-transfected with the pDisplay_BirA-ER plasmid[50] into HEK293T cells with the media supplemented with 20 µM biotin. This procedure allows in vivo biotinylation to occur, and the dialyzed conditioned medium was directly used for SA sensor chip immobilization without protein purification. […] Approximately 2500 resonance units (RU) of the biotinylated Notum was coupled onto the chip. […] The response was plotted versus the concentration of the analytes and fitted by nonlinear regression to a one-site saturation binding model (GraphPad Prism 8).

Cn1c(=O)c2[nH]cnc2n(C)c1=O [theophylline, 1,3-dimethylxanthine]
Thermoflour melting curve fluorescence of Notum (Notum [1]; Temperature 24.5): 897.128 | Thermoflour melting curve fluorescence of Notum (Notum [1]; Temperature 25.5): 765.384 | Thermoflour melting curve fluorescence of Notum (Notum [1]; Temperature 26.5): 637.209 | Thermoflour melting curve fluorescence of Notum (Notum [1]; Temperature 27.5): 518.408 | Thermoflour melting curve fluorescence of Notum (Notum [1]; Temperature 28.5): 414.177 | Thermoflour melting curve fluorescence of Notum (Notum [1]; Temperature 29.5): 331.765 | Thermoflour melting curve fluorescence of Notum (Notum [1]; Temperature 30.5): 250.774 | Thermoflour melting curve fluorescence of Notum (Notum [1]; Temperature 31.5): 158.442 | Thermoflour melting curve fluorescence of Notum (Notum [1]; Temperature 32.5): 68.441 | Thermoflour melting curve fluorescence of Notum (Notum [1]; Temperature 33.5): -19.5239 | Thermoflour melting curve fluorescence of Notum (Notum [1]; Temperature 34.5): -111.255 | Thermoflour melting curve fluorescence of Notum (Notum [1]; Temperature 35.5): -209.389 | Thermoflour melting curve fluorescence of Notum (Notum [1]; Temperature 36.5): -312.731 | Thermoflour melting curve fluorescence of Notum (Notum [1]; Temperature 37.5): -413.402 | Thermoflour melting curve fluorescence of Notum (Notum [1]; Temperature 38.5): -500.183 | Thermoflour melting curve fluorescence of Notum (Notum [1]; Temperature 39.5): -562.853 | Thermoflour melting curve fluorescence of Notum (Notum [1]; Temperature 40.5): -610.744 | Thermoflour melting curve fluorescence of Notum (Notum [1]; Temperature 41.5): -645.08 | Thermoflour melting curve fluorescence of Notum (Notum [1]; Temperature 42.5): -650.416 | Thermoflour melting curve fluorescence of Notum (Notum [1]; Temperature 43.5): -632.566 | Thermoflour melting curve fluorescence of Notum (Notum [1]; Temperature 44.5): -596.655 | Thermoflour melting curve fluorescence of Notum (Notum [1]; Temperature 45.5): -543.168 | Thermoflour melting curve fluorescence of Notum (Notum [1]; Temperature 46.5): -459.896 | Thermoflour melting curve fluorescence of Notum (Notum [1]; Temperature 47.5): -343.992 | Thermoflour melting curve fluorescence of Notum (Notum [1]; Temperature 48.5): -208.285 | Thermoflour melting curve fluorescence of Notum (Notum [1]; Temperature 49.5): -58.8655 | Thermoflour melting curve fluorescence of Notum (Notum [1]; Temperature 50.5): 106.458 | Thermoflour melting curve fluorescence of Notum (Notum [1]; Temperature 51.5): 280.009 | Thermoflour melting curve fluorescence of Notum (Notum [1]; Temperature 52.5): 465.116 | Thermoflour melting curve fluorescence of Notum (Notum [1]; Temperature 53.5): 688.929 | Thermoflour melting curve fluorescence of Notum (Notum [1]; Temperature 54.5): 944.753 | Thermoflour melting curve fluorescence of Notum (Notum [1]; Temperature 55.5): 1249.14 | Thermoflour melting curve fluorescence of Notum (Notum [1]; Temperature 56.5): 1627.12 | Thermoflour melting curve fluorescence of Notum (Notum [1]; Temperature 57.5): 2089.03 | Thermoflour melting curve fluorescence of Notum (Notum [1]; Temperature 58.5): 2740.86 | Thermoflour melting curve fluorescence of Notum (Notum [1]; Temperature 59.5): 3654.17 | Thermoflour melting curve fluorescence of Notum (Notum [1]; Temperature 60.5): 4930.23 | Thermoflour melting curve fluorescence of Notum (Notum [1]; Temperature 61.5): 6643.29 | Thermoflour melting curve fluorescence of Notum (Notum [1]; Temperature 62.5): 8772.9 | Thermoflour melting curve fluorescence of Notum (Notum [1]; Temperature 63.5): 11088.9 | Thermoflour melting curve fluorescence of Notum (Notum [1]; Temperature 64.5): 13331.1 | Thermoflour melting curve fluorescence of Notum (Notum [1]; Temperature 65.5): 15330 | Thermoflour melting curve fluorescence of Notum (Notum [1]; Temperature 66.5): 16941.4 | Thermoflour melting curve fluorescence of Notum (Notum [1]; Temperature 67.5): 18219.9 | Thermoflour melting curve fluorescence of Notum (Notum [1]; Temperature 68.5): 19263.9 | Thermoflour melting curve fluorescence of Notum (Notum [1]; Temperature 69.5): 20098.6 | Thermoflour melting curve fluorescence of Notum (Notum [1]; Temperature 70.5): 20739.3 | Thermoflour melting curve fluorescence of Notum (Notum [1]; Temperature 71.5): 21242.8 | Thermoflour melting curve fluorescence of Notum (Notum [1]; Temperature 72.5): 21635.7 | Thermoflour melting curve fluorescence of Notum (Notum [1]; Temperature 73.5): 21967.5 | Thermoflour melting curve fluorescence of Notum (Notum [1]; Temperature 74.5): 22276.2 | Thermoflour melting curve fluorescence of Notum (Notum [1]; Temperature 75.5): 22539.4 | Thermoflour melting curve fluorescence of Notum (Notum [1]; Temperature 76.5): 22758.8 | Thermoflour melting curve fluorescence of Notum (Notum [1]; Temperature 77.5): 22973.7 | Thermoflour melting curve fluorescence of Notum (Notum [1]; Temperature 78.5): 23167.2 | Thermoflour melting curve fluorescence of Notum (Notum [1]; Temperature 79.5): 23367.9 | Thermoflour melting curve fluorescence of Notum (Notum [1]; Temperature 80.5): 23544.1 | Thermoflour melting curve fluorescence of Notum (Notum [1]; Temperature 81.5): 23667.9 | Thermoflour melting curve fluorescence of Notum (Notum [1]; Temperature 82.5): 23791 | Thermoflour melting curve fluorescence of Notum (Notum [1]; Temperature 83.5): 23926.1 | Thermoflour melting curve fluorescence of Notum (Notum [1]; Temperature 84.5): 24091.4 | Thermoflour melting curve fluorescence of Notum (Notum [1]; Temperature 85.5): 24243.5 | Thermoflour melting curve fluorescence of Notum (Notum [1]; Temperature 86.5): 24338.2 | Thermoflour melting curve fluorescence of Notum (Notum [1]; Temperature 87.5): 24414.9 | Thermoflour melting curve fluorescence of Notum (Notum [1]; Temperature 88.5): 24481.1 | Thermoflour melting curve fluorescence of Notum (Notum [1]; Temperature 89.5): 24523 | Thermoflour melting curve fluorescence of Notum (Notum [1]; Temperature 90.5): 24559.4 | Thermoflour melting curve fluorescence of Notum (Notum [1]; Temperature 91.5): 24580.6 | Thermoflour melting curve fluorescence of Notum (Notum [1]; Temperature 92.5): 24587.9 | Thermoflour melting curve fluorescence of Notum (Notum [1]; Temperature 93.5): 24608.3 | Thermoflour melting curve fluorescence of Notum (Notum [1]; Temperature 94.5): 24615 | Thermoflour melting curve fluorescence of Notum (Notum [1]; Temperature 95.5): 24596.6 | Thermoflour melting curve fluorescence of Notum (Notum [1]; Temperature 96.5): 24576.1 | Thermoflour melting curve fluorescence of Notum (Notum [1]; Temperature 97.5): 24555 | Effect on Tm of Notum (Notum [1]): very weak binding to Notum | ∆Tm of Notum (Notum [1]; versus Notum without compounds): about 1 °C | Melting temperature (Tm) of Notum (Notum [1]; Notum without compounds Tm 63.6 °C): 64.5 °C | Notum inhibitory effect in OPTS enzyme assay (Notum [2]): not sufficient to inhibit Notum enzyme activity; also recorded: could not detect obvious Notum inhibitory effects | SPR Response (Notum [3]; theophylline conc. 8.138e-6 (unit not given)): 6 | SPR Response (Notum [3]; theophylline conc. 1.628e-5 (unit not given)): 5.14 | SPR Response (Notum [3]; theophylline conc. 3.255e-5 (unit not given)): 5.26 | SPR Response (Notum [3]; theophylline conc. 6.51e-5 (unit not given)): 4.57 | SPR Response (Notum [3]; theophylline conc. 0.0001302 (unit not given)): 4.5 | SPR Response (Notum [3]; theophylline conc. 0.0002604 (unit not given)): 4.84 | SPR Response (Notum [3]; theophylline conc. 0.0005208 (unit not given)): 5.18 | SPR Response (Notum [3]; theophylline conc. 0.001042 (unit not given)): 6.64 | SPR Response (Notum [3]; theophylline conc. 0.002083 (unit not given)): 9.15 | SPR Response (Notum [3]; theophylline conc. 0.004167 (unit not given)): 13.17 | SPR Response (Notum [3]; theophylline conc. 0.008333 (unit not given)): 19.59 | SPR Response (Notum [3]; theophylline conc. 0.01667 (unit not given)): 29.6 | Binding to Notum (SPR response) (Notum [3]; result in words): weak binding; also recorded: very weak binding
